# Assay results published in PubChem BioAssay (NCI).
#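 Tested at 5 concentrations; 48 h exposure; 96-well plates; endpoints linearly interpolated, else capped at highest concentration. Abbreviation: GI50, concentration required for 50% inhibition of growth. At the TGI there is no net growth.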
# Key:
# Experiment in all cases: growth of human tumour cells (NCI), 48 h
# PC-3 prostate = tested on: PC-3 prostate
# MDA-MB-231 breast = tested on: MDA-MB-231 breast
# BT-549 breast = tested on: BT-549 breast
# T-47D breast = tested on: T-47D breast
# MCF7 breast = tested on: MCF7 breast
# HS 578T breast = tested on: HS 578T breast
# DMS 273 small cell lung = tested on: DMS 273 small cell lung
# LXFL 529 NSCLC = tested on: LXFL 529 NSCLC
# SNB-78 CNS = tested on: SNB-78 CNS
SMILES,TGI (PC-3 prostate) [µM],TGI (MDA-MB-231 breast) [µM],TGI (BT-549 breast) [µM],TGI (T-47D breast) [µM],TGI (MCF7 breast) [µM],TGI (HS 578T breast) [µM],GI50 (PC-3 prostate) [nM],GI50 (MDA-MB-231 breast) [µM],GI50 (BT-549 breast) [nM],GI50 (T-47D breast) [nM],GI50 (MCF7 breast) [nM],GI50 (HS 578T breast) [µM],TGI (DMS 273 small cell lung) [µM],TGI (LXFL 529 NSCLC) [µM],TGI (SNB-78 CNS) [µM],GI50 (LXFL 529 NSCLC) [µM]
C=CC1=C(C)C2=NC1=CC1=NC(=CC3=C(C)C4=C(O)[C@H](C(=O)OC)C(=C5NC(=C2)[C@@H](C)[C@@H]5CCC(=O)O)C4=N3)C(CC)=C1C,> 41.1,> 60.5,> 20.2,62.4,11,> 100,,,,,,,,,,
COc1ccc2c(NCCCCCCNc3c4ccccc4nc4cc(OC)ccc34)c3ccccc3nc2c1,0.543,0.385,3.18,6.16,3.35,0.937,,,,,,,,,,
COc1cccc2c(=O)c3c(sc12)c(NCCCNCCO)nc1ccccc13,2.7,2.86,18.6,3.48,3,4.07,1230,1.35,5290,1480,1460,1.65,,,,
CC(C)[O-].CC(C)[O-].CN(CCN(C)Cc1cc(F)cc(F)c1[O-])Cc1cc(F)cc(F)c1[O-].[Ti+4],5.43,10.5,5.92,8.31,2.78,6.22,1230,1.67,1950,416,687,1.62,,,,
O=C(c1cccs1)C1NO[N+]([O-])=C1c1cccs1 (stereo not drawn),22.3,25,21.2,5.09,16.3,14.6,8430,11.8,9410,2200,4840,2.82,,,,
CCN(CC)c1ccc(/C=C/C2=[N+](C)c3ccccc3C2(C)C)c(C)c1,1.67,2.27,1.24,1.61,1.62,16.5,22.5,0.101,< 30.9,< 27.2,57.4,0.129,,,,
N#Cc1c(-c2ccco2)cc(-c2ccccc2)[nH]c1=O,,,,,,,,,,,,,> 100,> 100,> 100,
CCNCCNc1cc(-c2ccc(C#N)cc2)c(C#N)c2nc3ccccc3n12,20.7,5.61,4.91,6.39,16.2,13.9,7410,2.35,1900,2340,3590,3.49,,,,
O=C(Cl)C1=C(c2ccccc2)C1c1ccccc1 (stereo not drawn),> 100,> 100,> 100,> 100,> 100,> 100,,,,,,,,,,
CCOC(=O)c1c(SCCN2CCOCC2)n(-c2ccccc2)c(=S)n(-c2ccccc2)c1=O,,> 100,> 100,> 100,41.5,87.4,,,,,,,,,,
O=C(NCCN1CCNCC1)c1ccc(Nc2nc3ccccc3c3occc23)cc1,29.8,25.8,18.2,35.4,> 100,38.4,11100,11.8,2720,5710,30200,14.3,,,,
COc1ccc(Nc2nccc(N3CCN(c4c5ccc(Cl)cc5nc5ccc(OC)cc45)CC3)n2)cc1,,> 100,> 100,44.7,> 100,> 100,,4.63,14400,2990,3670,5.78,,,,
O=C(/C=C/c1cccc(O)c1)c1cccc(-n2cc(-c3ccc4ccccc4c3)[nH]c2=O)c1,7.9,4.9,5.14,3.84,1.83,5.9,1850,1.66,1890,1110,471,2.01,,,,
O=C(O)c1ccccc1C(=O)c1ccc2c(c1)Cc1ccccc1-2,> 100,> 100,> 100,> 100,> 100,> 100,,,,,,,,,,
CSc1ccc(N(C)c2nc(C)nc3c2CCC3)cc1,51.6,72.4,< 0.01,,> 100,> 100,< 10,< 0.01,< 10,,< 10,< 0.01,,,,
Cc1ccc(NC(=O)/C(Cc2cc(=O)oc3cc(O)ccc23)=N\NC(=O)C[N+](C)(C)C)cc1C,> 100,> 100,> 100,> 100,> 100,> 100,,,,,,,,,,
COc1c(O)c(OC)c2oc(-c3ccc(O)cc3)c(OC)c(=O)c2c1O,> 100,> 100,> 100,55.7,> 100,57,,,,,,,,,,
c1cnn2ncc(-c3ccnc(Nc4ccc5c(c4)OCCO5)n3)c2c1,> 25,> 25,0.2,0.495,> 25,0.323,95.5,0.0914,58.8,84,79.7,0.0747,,,,
COc1cc2nc(-c3ccc(C(F)(F)F)cc3)cc(OCCCN3CCCC3)c2cc1OC,9.79,8.23,4.95,15.9,4.13,19.3,1140,0.532,917,478,1120,2.48,,,,
CC(C)Oc1ccc(C(=O)Cn2ccnc2)cc1-n1c(CN2CCN(C(=O)COc3ccc(Cl)cc3)CC2)nc2ccccc2c1=O,37.2,19.7,30.9,> 95.4,35.5,46.6,9440,4.32,13500,14300,12000,15.8,,,,
Cc1cccc(/C(Br)=C2/OC(=O)c3ccccc32)c1,> 100,,> 100,,> 100,> 100,,,,,,,,,,
O=c1c2ccccc2sc2ccccc12,> 100,> 100,> 100,> 100,> 100,> 100,,,,,,,,,,
CCn1c(-c2nonc2N)nc2ccncc21,> 25,> 25,> 25,> 25,> 25,> 25,> 25000,> 25,> 25000,> 25000,> 25000,> 25,,,,
CC1OC(c2ccc3c(c2O)C(=O)C2=C(C3=O)C3(O)C(=O)CC(C)(O)CC3(O)C=C2)CC(O)C1O (stereo not drawn),65.7,6.17,32.8,28.3,9,53.2,,,,,,,,,,

SMILES,TGI (PC-3 prostate) [µM],TGI (MDA-MB-231 breast) [µM],TGI (BT-549 breast) [µM],TGI (T-47D breast) [µM],TGI (MCF7 breast) [µM],TGI (HS 578T breast) [µM],GI50 (PC-3 prostate) [nM],GI50 (MDA-MB-231 breast) [µM],GI50 (BT-549 breast) [nM],GI50 (T-47D breast) [nM],GI50 (MCF7 breast) [nM],GI50 (HS 578T breast) [µM],TGI (DMS 273 small cell lung) [µM],TGI (LXFL 529 NSCLC) [µM],TGI (SNB-78 CNS) [µM],GI50 (LXFL 529 NSCLC) [µM]
COc1cccc(COc2cc(-n3cnc4ccccc43)sc2C(N)=O)c1,> 25,> 25,> 25,> 25,> 25,> 25,> 25000,14.8,> 21000,> 25000,1080,> 17.7,,,,
CC(C)(C)OC(=O)NC1CCCC1=O (stereo not drawn),,,,,,,,,,,,,> 100,> 100,> 100,
CC1c2ccccc2N=C2SC(=S)N3CCN=C3N21 (stereo not drawn),> 100,> 100,> 100,> 100,> 100,,> 100000,> 100,> 100000,> 100000,> 100000,,,,,
Cc1cccc(N(CC(=O)O)S(=O)(=O)c2ccccc2)c1,,,,,,,,,,,,,> 100,> 100,,
CC(C)[O-].CC(C)[O-].O=c1cccccc1[O-].O=c1cccccc1[O-].[Ti+4],,,,,,,,,,,,,,> 100,,31
Cc1cc2c(cc1Cl)S/C(=C/C(=O)O)C(Nc1cccc3nsnc13)=NS2(=O)=O,> 75.8,> 69.4,1.38,> 100,> 76.2,> 60.7,41000,47.4,,> 77800,32700,30.5,,,,
OCc1ccc(N2CCOCC2)cc1Cl,> 100,> 100,> 100,> 84.1,> 100,> 100,> 100000,> 100,> 100000,14700,15800,> 100,,,,
O=[N+]([O-])c1ccc(-c2cc3c(Nc4ccc(Cl)c(C(F)(F)F)c4)ncnc3s2)cc1,> 100,1.63,> 100,6.1,> 100,,802,0.382,2910,407,982,,,,,
O=[N+]([O-])c1cc(Cl)ccc1Sc1ccccc1,> 100,> 100,> 100,> 100,> 100,> 100,,,,,,,,,,
CCCCCCCCCCCCCC[n+]1cccc(C(N)=O)c1,2.94,4.54,,27.6,11.4,10.3,598,1.45,,4660,2620,2.64,,,,
Cc1cccc(N=Nc2ccc(N=Nc3c(O)ccc4ccccc34)cc2C)c1,> 100,> 100,> 100,,> 100,> 100,,,,,,,,,,
[2H]c1nc(=Nc2cc(NC(=O)C=C)c(N(C)CCN(C)C)cc2OC)[nH]c(-c2cn(C([2H])([2H])[2H])c3ccccc23)c1[2H],3.5,2.81,3.25,2.83,3.23,9.74,1610,1.27,1520,1070,1390,2.59,,,,
Nc1cc(-c2ccc(Cl)cc2)nn1-c1nnc(/C=C/c2ccco2)c(=O)[nH]1,> 75,> 100,55.5,> 66.5,26.1,> 64.3,8950,11.2,5620,5350,2950,10.2,,,,
c1ccc(-c2nc(N3CCCNCC3)c3nc(-c4ccccc4)oc3n2)cc1,,3.21,,3.64,3.34,3.94,,1.72,,1780,1670,1.86,,,,
O=C1/C(=C/c2ccc([N+](=O)[O-])cc2)COc2ccc(O)cc21,7.27,36.9,50.4,> 100,2.8,> 100,2580,4.77,18500,9730,1230,3.54,,,,
O=C1c2cccc3cccc(c23)C(=O)N1O,> 100,> 100,> 100,> 100,> 100,> 100,,,,,,,,,,
Cc1ccc(NC(=O)/C(Cc2nc3ccc([N+](=O)[O-])cc3[nH]c2=O)=N\NC(=O)C[n+]2ccccc2)c(C)c1,> 100,86.4,> 100,,> 100,> 100,,,,,,,,,,
O=C1c2ccccc2-c2c1c1ccccc1c(=O)n2CCNCCn1c2c(c3ccccc3c1=O)C(=O)c1ccccc1-2,,> 25,> 25,,> 25,> 25,,18.2,> 25000,,> 25000,> 25,,,,
CCOC(=O)N1CCN(CCCCCOc2ccccc2C2CCCCC2)CC1,13,21.5,11.3,14.4,13.1,34.8,2600,5.1,3000,2350,3200,12.8,,,,
Cc1ccc2oc(=O)c(-c3ccccc3)nc2c1,,,,,,,,,,,,,37.6,,,
Cc1cc(C)n(C2=NS(=O)(=O)c3ccccc3N2C)n1,> 100,> 100,> 100,> 100,> 100,> 100,,,,,,,,,,
O=C1c2ccccc2-c2c1c1c(NCCCO)nc3ccccc3c1n2Cc1ccccc1,,42.7,43.7,46.4,31,> 100,,20.7,21100,21000,17200,40.6,,,,
CN1c2ccccc2SC2C(c3ccccc3)=NOC21 (stereo not drawn),71,> 100,68.4,94.3,> 100,> 100,,,,,,,,,,
